These results are taken from patent publication US20230346827A1 (priority 2020, published 2023).

The test system of one experiment is blood coagulation (APTT). Put plainly: Activated partial thromboplastin time (APTT) in blood of ALS patients after s.c. LMW-DS 1 mg/kg (Example 5). The class given is in vivo, human. Here is the method:
This was a single-centre, open single-arm study where the safety, tolerability and efficacy of subcutaneous (s.c.) administered LMW-DS was evaluated in patients with ALS. There were 10 planned visits to the clinic: 1 screening visit divided in 2 parts (Visit 1a and Visit 1b), 5 IMP administration visits (Visit 2 to Visit 6) and 3 follow-up visits (Visit 7 to Visit 9). Each individual patient’s study participation was planned to be approximately 4 months, including the screening and follow-up visits.
The active pharmaceutical ingredient of the IMP was a low molecular weight dextran sulfate (LMW-DS), (ILB®, Tikomed AB, Viken, Sweden, WO 2016/076780). LMW-DS was prepared as a solution for s.c. injection and consisted of 20 mg/mL LMW-DS and 9 mg/mL NaCl. Each glass vial contained 10 mL. The dose administered depended on the patient’s body weight at Visit 2, prior to the first LMW-DS administration. LMW-DS was injected s.c. on alternating sides of the abdomen, thigh or the buttock (in that order of priority). Five injections of 1 mg/kg, with 1 week dosing interval, were administered. Changes in activated partial thromboplastin time (APTT) were recorded from blood samples taken at each visit.

Experiment [1] has as its system coronary artery smooth muscle cells + (IL-1 β, TNFα and IFNy). The experiment in a line: BioMAP CASM3C system. The class given is cell-based, human. As to conditions: annotated relative to vehicle controls. An excerpt:
Cell types and stimuli used in each system are as follows: 3C system [HUVEC + (IL-1β, TNFα and IFNy)], 4H system [HUVEC + (IL-4 and histamine)], LPS system [PBMC and HUVEC + LPS (TLR4 ligand)], SAg system [PBMC and HUVEC + TCR ligands], BT system [CD19+ B cells and PBMC + (α-IgM and TCR ligands)], BF4T system [bronchial epithelial cells and HDFn + (TNFα and IL-4)], BE3C system [bronchial epithelial cells + (IL-1β, TNFα and IFNy)], CASM3C system [coronary artery smooth muscle cells + (IL-1 β, TNFα and IFNy)], HDF3CGF system [HDFn + (IL-1β, TNFα, IFNy, EGF, bFGF and PDGF-BB)], KF3CT system [keratinocytes and HDFn + (IL-1β, TNFα, IFNy and TGFβ)], MyoF system [differentiated lung myofibroblasts + (TNFα and TGFβ)] and Mphg system [HUVEC and M1 macrophages + Zymosan (TLR2 ligand)].
Systems are derived from either single cell types or co-culture systems. Adherent cell types are cultured in 96 or 384-well plates until confluence, followed by the addition of PBMC (SAg and LPS systems). […] Soluble factors from supernatants are quantified using either HTRF® detection, bead-based multiplex immunoassay or capture ELISA. Overt adverse effects of test agents on cell proliferation and viability (cytotoxicity) are detected by sulforhodamine B (SRB) staining, for adherent cells, and alamarBlue® reduction for cells in suspension. […]

sodium salt of dextran sulfate [LMW-DS]: the “APTT relative change from baseline” value is “+33.5%” with blood coagulation (APTT) (2 hours post-dosing) and “+26.5%” in the experiment on blood coagulation (APTT) (2.5 hours post-dosing). For the same substance, the “time at which APTT values returned to pre-dose levels” value in the experiment on blood coagulation (APTT) (post dosing) is 6 h. Besides, the Decreased biomarker activity result in experiment [1] is listed as “VCAM-1, MIG”.
